From ChEMBL document CHEMBL4811240, “Discovery of N-substituted sulfamoylbenzamide derivatives as novel inhibitors of STAT3 signaling pathway based on Niclosamide” (Eur J Med Chem, 2021)
Calls of active or inactive are those of the source. No cut-off for these calls is given here.

How the values were obtained:
[1] = test system: HCT-116; experiment: Antiproliferative activity against human HCT116 cells assessed as inhibition of cell viability at 10 uM after 48 hrs by MTT assay relative to control; type: functional
[2] = Lipophilicity, log P of the compound; type: physicochemical; conditions: octanol/water
[3] = molecular target: Tyrosine-protein kinase JAK1 (Homo sapiens) (UniProt P23458); experiment: Inhibition of JAK1 (850 to 1154 residues) (unknown origin) expressed in Sf21 cells at 10 uM preincubated for 10 mins followed by peptide substrate addition relative to control
[4] = molecular target: Tyrosine-protein kinase JAK3 (Homo sapiens) (UniProt P52333); experiment: Inhibition of N-terminal His-tagged JAK3 (795 to 1124 residues) (unknown origin) expressed in Sf21 cells at 10 uM preincubated for 10 mins followed by peptide substrate addition relative to control
Tyrosine-protein kinase JAK3 (Homo sapiens), sequence (P52333 whole entry, the tested form may be a part): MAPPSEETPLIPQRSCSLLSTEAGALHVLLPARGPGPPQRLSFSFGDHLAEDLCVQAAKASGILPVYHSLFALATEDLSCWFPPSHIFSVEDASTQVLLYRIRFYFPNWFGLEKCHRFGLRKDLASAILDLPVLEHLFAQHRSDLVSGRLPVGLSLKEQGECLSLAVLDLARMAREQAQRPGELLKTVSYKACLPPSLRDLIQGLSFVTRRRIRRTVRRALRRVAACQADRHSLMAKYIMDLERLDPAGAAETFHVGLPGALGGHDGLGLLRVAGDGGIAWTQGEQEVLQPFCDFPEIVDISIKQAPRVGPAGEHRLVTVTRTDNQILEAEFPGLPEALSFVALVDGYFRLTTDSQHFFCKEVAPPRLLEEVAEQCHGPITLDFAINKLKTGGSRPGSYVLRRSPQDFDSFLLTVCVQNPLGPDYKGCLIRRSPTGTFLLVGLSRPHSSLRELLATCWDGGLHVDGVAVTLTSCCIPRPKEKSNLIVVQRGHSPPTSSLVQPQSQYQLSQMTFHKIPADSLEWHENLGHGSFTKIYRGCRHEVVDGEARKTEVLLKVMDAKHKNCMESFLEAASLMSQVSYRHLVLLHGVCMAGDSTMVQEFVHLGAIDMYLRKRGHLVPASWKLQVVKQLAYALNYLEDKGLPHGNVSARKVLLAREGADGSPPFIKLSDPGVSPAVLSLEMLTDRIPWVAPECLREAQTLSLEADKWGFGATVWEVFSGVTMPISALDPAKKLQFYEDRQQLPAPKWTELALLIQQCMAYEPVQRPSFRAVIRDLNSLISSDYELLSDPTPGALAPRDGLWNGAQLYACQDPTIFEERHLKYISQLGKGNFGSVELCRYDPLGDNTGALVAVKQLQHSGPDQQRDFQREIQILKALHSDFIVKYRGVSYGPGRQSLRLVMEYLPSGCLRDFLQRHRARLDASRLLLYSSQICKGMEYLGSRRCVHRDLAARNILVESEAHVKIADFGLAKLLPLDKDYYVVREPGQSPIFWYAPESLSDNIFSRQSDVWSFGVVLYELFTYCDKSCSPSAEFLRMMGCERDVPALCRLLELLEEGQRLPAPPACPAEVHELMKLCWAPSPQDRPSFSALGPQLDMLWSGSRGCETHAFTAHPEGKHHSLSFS

[5] = molecular target: Non-receptor tyrosine-protein kinase TYK2 (Homo sapiens) (UniProt P29597); experiment: Inhibition of TYK2 (871 to 1187 residues) (unknown origin) expressed in Sf21 cells at 10 uM preincubated for 10 mins followed by peptide substrate addition relative to control
[6] = molecular target: Fibroblast growth factor receptor 3 (Homo sapiens) (UniProt P22607); experiment: Inhibition of FGFR3 (436 to 806 residues) (unknown origin) expressed in Sf21 cells at 10 uM preincubated for 10 mins followed by peptide substrate addition relative to control
[7] = molecular target: Fibroblast growth factor receptor 4 (Homo sapiens) (UniProt P22455); experiment: Inhibition of FGFR4 (460 to 802 residues) (unknown origin) expressed in Sf21 cells at 10 uM preincubated for 10 mins followed by peptide substrate addition relative to control
[8] = molecular target: RAC-alpha serine/threonine-protein kinase (Homo sapiens) (UniProt P31749); experiment: Inhibition of human N-terminal His-tagged full length AKT1 (1 to 480 residues) expressed in Sf9 cells at 10 uM preincubated for 10 mins followed by peptide substrate addition relative to control
[9] = molecular target: Mitogen-activated protein kinase 1 (Homo sapiens) (UniProt P28482); experiment: Inhibition of N-terminal GST-tagged full length ERK2 (1 to 360 residues) (unknown origin) expressed in Escherichia coli at 10 uM preincubated for 10 mins followed by peptide substrate addition relative to control
[10] = molecular target: Proto-oncogene tyrosine-protein kinase ROS (Homo sapiens) (UniProt P08922); experiment: Inhibition of N-terminal GST-tagged ROS1 (1883 to 2347 residues) (unknown origin) expressed in Sf21 cells at 10 uM preincubated for 10 mins followed by peptide substrate addition relative to control
[11] = molecular target: Vascular endothelial growth factor receptor 1 (Homo sapiens) (UniProt P17948); experiment: Inhibition of recombinant human GST-tagged FLT1 (781 to 1338 residues) expressed in baculovirus expression system at 10 uM preincubated for 10 mins followed by peptide substrate addition relative to control
[12] = molecular target: Receptor-type tyrosine-protein kinase FLT3 (Homo sapiens) (UniProt P36888); experiment: Inhibition of recombinant human His-tagged FLT3 expressed in baculovirus expression system at 10 uM preincubated for 10 mins followed by peptide substrate addition relative to control
[13] = molecular target: Dual specificity mitogen-activated protein kinase kinase 1 (Homo sapiens) (UniProt Q02750); experiment: Inhibition of N-terminal GST-tagged full length MEK1 (1 to 393 residues) (unknown origin) expressed in Sf21 cells at 10 uM preincubated for 10 mins followed by peptide substrate addition relative to control
[14] = molecular target: Mast/stem cell growth factor receptor Kit (Homo sapiens) (UniProt P10721); experiment: Inhibition of c-KIT (544 to 976 residues) (unknown origin) expressed in Sf21 cells at 10 uM preincubated for 10 mins followed by peptide substrate addition relative to control
[15] = molecular target: Cyclin-dependent kinase 7 (Homo sapiens) (UniProt P50613); experiment: Inhibition of CDK7 (unknown origin) at 10 uM preincubated for 10 mins followed by peptide substrate addition relative to control
Cyclin-dependent kinase 7 (Homo sapiens), sequence (P50613 whole entry): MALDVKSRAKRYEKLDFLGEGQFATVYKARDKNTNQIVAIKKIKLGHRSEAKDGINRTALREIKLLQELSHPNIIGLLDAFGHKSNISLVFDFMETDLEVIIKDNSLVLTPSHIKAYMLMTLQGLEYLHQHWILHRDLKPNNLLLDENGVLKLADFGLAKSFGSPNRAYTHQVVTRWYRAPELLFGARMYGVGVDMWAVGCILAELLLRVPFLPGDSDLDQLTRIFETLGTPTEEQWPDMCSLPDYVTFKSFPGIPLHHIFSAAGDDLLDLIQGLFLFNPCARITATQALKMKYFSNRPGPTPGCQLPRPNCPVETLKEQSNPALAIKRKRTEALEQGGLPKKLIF

[16] = molecular target: Cyclin-dependent kinase 1/cyclin B1 (Homo sapiens) (UniProt P06493+P14635); experiment: Inhibition of N-terminal GST-tagged full length CDK1/cyclin B1 (unknown origin) expressed in Sf21 cells at 10 uM preincubated for 10 mins followed by peptide substrate addition relative to control
[17] = molecular target: Insulin-like growth factor 1 receptor (Homo sapiens) (UniProt P08069); experiment: Inhibition of IGF1R (959 to 1367 residues) (unknown origin) expressed in Sf21 cells at 10 uM preincubated for 10 mins followed by peptide substrate addition relative to control
Insulin-like growth factor 1 receptor (Homo sapiens), sequence (P08069 31-736 limits assumed): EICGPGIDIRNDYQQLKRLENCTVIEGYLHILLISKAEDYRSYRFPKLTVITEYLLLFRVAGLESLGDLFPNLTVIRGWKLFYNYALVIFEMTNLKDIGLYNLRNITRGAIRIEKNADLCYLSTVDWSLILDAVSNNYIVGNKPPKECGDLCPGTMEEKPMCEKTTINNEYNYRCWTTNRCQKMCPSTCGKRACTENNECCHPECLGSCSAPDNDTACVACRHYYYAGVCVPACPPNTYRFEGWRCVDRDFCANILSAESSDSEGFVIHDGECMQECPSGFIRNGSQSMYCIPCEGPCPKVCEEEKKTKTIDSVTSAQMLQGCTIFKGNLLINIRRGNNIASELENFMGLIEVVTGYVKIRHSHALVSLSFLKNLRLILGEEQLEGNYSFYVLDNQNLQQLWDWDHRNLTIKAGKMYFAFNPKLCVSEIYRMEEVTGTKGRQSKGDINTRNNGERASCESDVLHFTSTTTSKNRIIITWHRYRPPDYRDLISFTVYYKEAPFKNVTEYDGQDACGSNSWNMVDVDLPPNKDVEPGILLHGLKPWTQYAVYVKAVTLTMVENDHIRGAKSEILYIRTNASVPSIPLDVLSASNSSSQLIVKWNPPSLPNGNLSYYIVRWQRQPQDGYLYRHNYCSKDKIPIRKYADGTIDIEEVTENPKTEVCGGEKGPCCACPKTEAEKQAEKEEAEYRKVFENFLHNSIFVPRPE
Insulin-like growth factor 1 receptor (Homo sapiens), sequence (P08069 741-1367 limits assumed): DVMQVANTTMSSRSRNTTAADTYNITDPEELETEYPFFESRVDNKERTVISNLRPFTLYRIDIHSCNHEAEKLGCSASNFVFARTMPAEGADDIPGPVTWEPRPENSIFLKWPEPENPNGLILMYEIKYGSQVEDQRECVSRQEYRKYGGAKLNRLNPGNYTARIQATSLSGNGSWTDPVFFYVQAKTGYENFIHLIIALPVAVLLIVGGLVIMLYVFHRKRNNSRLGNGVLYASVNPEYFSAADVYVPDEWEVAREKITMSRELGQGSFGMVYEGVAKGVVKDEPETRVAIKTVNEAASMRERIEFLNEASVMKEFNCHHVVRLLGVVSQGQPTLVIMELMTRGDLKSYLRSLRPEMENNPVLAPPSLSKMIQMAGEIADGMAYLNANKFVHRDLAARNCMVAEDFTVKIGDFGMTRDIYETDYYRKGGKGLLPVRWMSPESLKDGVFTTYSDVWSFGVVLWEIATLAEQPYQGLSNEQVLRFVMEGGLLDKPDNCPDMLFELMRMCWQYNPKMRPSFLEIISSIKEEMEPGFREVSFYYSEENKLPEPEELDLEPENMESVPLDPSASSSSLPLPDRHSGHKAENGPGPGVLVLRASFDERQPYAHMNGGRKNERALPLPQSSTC

[18] = molecular target: Mitogen-activated protein kinase 8 (Homo sapiens) (UniProt P45983); experiment: Inhibition of N-terminal GST-tagged JNK1 (2 to 364 residues) (unknown origin) expressed in Escherichia coli at 10 uM preincubated for 10 mins followed by peptide substrate addition relative to control
Mitogen-activated protein kinase 8 (Homo sapiens), sequence (P45983 whole entry, the tested form may be a part): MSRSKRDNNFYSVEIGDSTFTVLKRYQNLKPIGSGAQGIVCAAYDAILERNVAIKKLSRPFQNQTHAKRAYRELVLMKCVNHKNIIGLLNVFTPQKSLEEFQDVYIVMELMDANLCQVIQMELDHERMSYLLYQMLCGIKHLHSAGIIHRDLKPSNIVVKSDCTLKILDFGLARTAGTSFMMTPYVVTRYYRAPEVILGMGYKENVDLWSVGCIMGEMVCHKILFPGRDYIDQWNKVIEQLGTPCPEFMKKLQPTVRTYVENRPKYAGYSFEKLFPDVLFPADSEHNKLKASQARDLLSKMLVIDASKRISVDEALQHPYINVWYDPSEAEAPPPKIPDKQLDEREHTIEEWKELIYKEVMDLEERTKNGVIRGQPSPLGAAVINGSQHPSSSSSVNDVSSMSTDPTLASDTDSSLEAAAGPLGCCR

[19] = molecular target: Serine/threonine-protein kinase PLK1 (Homo sapiens) (UniProt P53350); experiment: Inhibition of full length PLK1 (1 to 603 residues) (unknown origin) expressed in Sf21 at 10 uM preincubated for 10 mins followed by peptide substrate addition relative to control
[20] = molecular target: Platelet-derived growth factor receptor beta (Homo sapiens) (UniProt P09619); experiment: Inhibition of PDGFRbeta (557 to 1106 residues) (unknown origin) expressed in Sf21 at 10 uM preincubated for 10 mins followed by peptide substrate addition relative to control
Platelet-derived growth factor receptor beta (Homo sapiens), sequence (P09619 whole entry, the tested form may be a part): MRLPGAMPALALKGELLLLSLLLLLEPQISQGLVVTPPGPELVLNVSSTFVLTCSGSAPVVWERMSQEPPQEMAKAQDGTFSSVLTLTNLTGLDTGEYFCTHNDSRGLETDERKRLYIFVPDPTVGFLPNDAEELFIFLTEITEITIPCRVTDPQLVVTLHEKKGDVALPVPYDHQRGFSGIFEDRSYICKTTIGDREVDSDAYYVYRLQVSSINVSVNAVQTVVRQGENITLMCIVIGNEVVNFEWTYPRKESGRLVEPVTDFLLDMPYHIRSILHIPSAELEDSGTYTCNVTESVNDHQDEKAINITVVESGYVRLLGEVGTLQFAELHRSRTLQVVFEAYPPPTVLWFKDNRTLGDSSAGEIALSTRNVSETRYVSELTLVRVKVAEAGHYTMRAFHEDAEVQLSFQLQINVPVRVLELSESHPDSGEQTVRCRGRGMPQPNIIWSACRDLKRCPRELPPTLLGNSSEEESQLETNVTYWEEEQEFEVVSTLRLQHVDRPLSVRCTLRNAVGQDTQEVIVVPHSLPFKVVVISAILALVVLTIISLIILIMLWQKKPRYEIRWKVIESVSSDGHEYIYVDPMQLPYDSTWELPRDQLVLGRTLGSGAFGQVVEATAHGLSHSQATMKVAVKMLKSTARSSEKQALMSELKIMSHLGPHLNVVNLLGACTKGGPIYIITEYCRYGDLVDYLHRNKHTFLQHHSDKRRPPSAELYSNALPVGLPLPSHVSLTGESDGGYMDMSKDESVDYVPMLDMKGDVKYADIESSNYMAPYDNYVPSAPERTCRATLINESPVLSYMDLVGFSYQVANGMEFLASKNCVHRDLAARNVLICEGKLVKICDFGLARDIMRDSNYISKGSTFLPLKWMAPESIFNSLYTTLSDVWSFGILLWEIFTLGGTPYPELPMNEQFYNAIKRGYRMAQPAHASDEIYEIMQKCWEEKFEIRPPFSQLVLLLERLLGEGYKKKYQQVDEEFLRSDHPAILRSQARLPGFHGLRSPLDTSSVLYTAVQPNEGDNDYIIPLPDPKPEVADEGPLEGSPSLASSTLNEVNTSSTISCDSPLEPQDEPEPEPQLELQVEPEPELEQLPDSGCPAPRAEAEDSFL

[21] = molecular target: Signal transducer and activator of transcription 3 (Homo sapiens) (UniProt P40763); experiment: Inhibition of STAT3 promoter activity in human MDA-MB-231 cells at 0.5 uM incubated for 24 hrs by dual luciferase reporter assay; type: cell-based
[22] = test system: MDA-MB-231; experiment: Induction of apoptosis in human MDA-MB-231 cells assessed as increase in cleaved PARP expression at 1 to 10 uM incubated for 24 hrs by Western blot analysis; type: functional, cell-based; conditions: dose 1-10 µM
[23] = test system: MDA-MB-231; experiment: Induction of apoptosis in human MDA-MB-231 cells assessed as increase in cleaved caspase 3 expression at 1 to 10 uM incubated for 24 hrs by Western blot analysis; type: functional, cell-based; conditions: dose 1-10 µM
[24] = test system: MDA-MB-231; experiment: Induction of apoptosis in human MDA-MB-231 cells assessed as apoptotic cells at 1 uM measured after 24 hrs by annexinV-FITC/propidium iodide staining based flow cytometry analysis (reference value: 2.49%); type: functional
[25] = test system: MDA-MB-231; experiment: Inhibition of human MDA-MB-231 cells migration a 1000 nM after 24 hrs by crystal violet staining based transwell migration assay; type: functional, cell-based
[26] = test system: MDA-MB-231; experiment: Antitumor activity against human MDA-MB-231 cells xenografted in BALB/c nude mouse assessed as the inhibition of tumor growth at 30 mg/kg, ig administered every two days; type: functional, organism-based
[27] = molecular target: Serine/threonine-protein kinase PAK 1 (Homo sapiens) (UniProt Q13153); experiment: Inhibition of full length N-terminal GST-tagged PAK1 (1 to 545 residues) (unknown origin) expressed in Sf21 at 10 uM preincubated for 10 mins followed by peptide substrate addition relative to control
Serine/threonine-protein kinase PAK 1 (Homo sapiens), sequence (Q13153 whole entry, looked up, the tested form may be a part): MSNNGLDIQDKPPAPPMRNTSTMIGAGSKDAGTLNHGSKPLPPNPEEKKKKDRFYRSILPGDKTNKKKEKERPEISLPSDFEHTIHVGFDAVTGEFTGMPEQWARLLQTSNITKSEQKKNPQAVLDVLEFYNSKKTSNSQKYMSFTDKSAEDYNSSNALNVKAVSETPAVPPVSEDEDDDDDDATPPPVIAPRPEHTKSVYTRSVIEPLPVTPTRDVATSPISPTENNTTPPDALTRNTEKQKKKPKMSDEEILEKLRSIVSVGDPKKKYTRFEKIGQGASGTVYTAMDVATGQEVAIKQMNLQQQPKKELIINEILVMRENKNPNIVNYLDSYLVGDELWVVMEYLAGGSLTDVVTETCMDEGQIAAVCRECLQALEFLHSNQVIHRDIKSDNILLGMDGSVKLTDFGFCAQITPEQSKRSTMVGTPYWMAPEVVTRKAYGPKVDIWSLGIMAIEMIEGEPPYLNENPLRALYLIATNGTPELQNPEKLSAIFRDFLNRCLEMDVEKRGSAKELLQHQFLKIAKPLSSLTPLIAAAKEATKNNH

CC(C)(C)OC(=O)c1ccc(NC(=O)c2ccc(Cl)c(S(N)(=O)=O)c2)cc1
inhibition at 10 µM [1]: 85.3%
logP [2]: 1.83
inhibition [3]: 2.99%
inhibition [4]: 4.24%
inhibition [5]: -1.53%
inhibition [6]: 1.25%
inhibition [7]: -1.53%
inhibition [8]: 3.48%
inhibition [9]: 0.78%
inhibition [10]: -3.38%
inhibition [11]: 4.33%
inhibition [12]: 10.2%
inhibition [13]: 1.56%
inhibition [14]: 3.33%
inhibition [15]: 6.45%
inhibition [16]: -2.27%
inhibition [17]: 2.93%
inhibition [18]: 2.52%
inhibition [19]: 5.19%
inhibition [20]: -1.19%
inhibition [21]: 80.6%
Activity [22]: Active
Activity [23]: Active
Activity [24]: 6.75%
inhibition [25]: Active
Activity [26]: Active
inhibition [27]: 9.32%
